Test system: Hep3B xenograft
Assay: Antitumor activity in Hep3B xenograft model of hepatocellular carcinoma
Format: in vivo, mice
Conditions: 17 days
Method: The human hepatocellular cancer cell line Hep3B was cultured in RPMI1640 medium containing 10% fetal bovine serum at 37° C. in a 5% CO2 atmosphere and kept in exponential growth phase. […] When the mean tumor volume (TV) reached approximately 170 mm^3 (10 days after implantation), 56 mice were selected based on their TVs, and were sorted into 7 treatment groups with 8 animals per group. […] Body weights were measured daily and tumor measurements were performed twice weekly.
[formula] where Day X is any day of measurement.
The anti-tumor effects of the treatment, Partial (PR) and complete regression (CR), stable (SD) and progressive (PD) disease were defined by the H3 Xenograft Model Response Criteria (Appendix 4). […] The relative body weight changes were analyzed by two way ANOVA followed by Dunnett's post hoc.

C=CC(=O)Nc1cc(N2CCN(CC)CC2)ccc1Nc1cc(N(C)C(=O)Nc2c(Cl)c(OC)cc(OC)c2Cl)ncn1 [Compound 1, N-(2-((6-(3-(2,6-dichloro-3,5-dimethoxyphenyl)-1-methylureido)pyrimidin-4-yl)amino)-5-(4-ethylpiperazin-1-yl)phenyl)acrylamide]
Tumor Growth Inhibition (TGI) (Compound 1 single agent 100 mg/kg PO): 16% | Tumor Growth Inhibition (TGI) (Compound 1 single agent 300 mg/kg PO, p<0.05 vs vehicle): 64%

— patent US11357769B2, “Drug combinations for reducing cell viability and/or cell proliferation” (Eisai R&D Management Co., Ltd., priority 2016, dated 2022)
